The values that follow come from patent US10792377B2, “Compounds and method for imaging cancer” (Vanderbilt University, priority 2017, dated 2020).

Read-outs that look alike come from different tables or passages of the source.

For one series, the target named is T1, hCOX-2 in 1483 cells (Homo sapiens, UniProt P35354).
T1 construct: cells that express high levels of COX-2 were selected; endogenous in cells; host or cells: 1483 human head and neck squamous cell carcinoma (HNSCC) cells
T1 sequence (P35354 18-604): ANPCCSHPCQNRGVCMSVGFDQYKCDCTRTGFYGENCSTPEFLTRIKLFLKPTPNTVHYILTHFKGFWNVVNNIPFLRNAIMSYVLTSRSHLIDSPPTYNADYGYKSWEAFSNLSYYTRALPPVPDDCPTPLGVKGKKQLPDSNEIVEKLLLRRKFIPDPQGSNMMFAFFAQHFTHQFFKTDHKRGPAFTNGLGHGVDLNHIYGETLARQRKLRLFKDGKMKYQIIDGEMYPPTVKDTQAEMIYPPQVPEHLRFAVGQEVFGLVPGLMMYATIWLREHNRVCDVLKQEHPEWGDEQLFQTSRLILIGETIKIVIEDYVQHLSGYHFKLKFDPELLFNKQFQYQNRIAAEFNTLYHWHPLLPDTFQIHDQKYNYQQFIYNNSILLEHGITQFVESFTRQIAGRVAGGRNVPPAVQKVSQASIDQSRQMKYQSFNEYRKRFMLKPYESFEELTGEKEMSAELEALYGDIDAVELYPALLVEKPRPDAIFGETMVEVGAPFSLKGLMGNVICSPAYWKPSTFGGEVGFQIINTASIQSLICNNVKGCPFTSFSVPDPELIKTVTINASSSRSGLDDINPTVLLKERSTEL
Description: Intact cell COX-2 inhibition assay in 1483 HNSCC cells. The series is classed as cell-based. The method, then:
Following the promising results from the purified enzyme assay, the ability of compound 1 to inhibit COX-2 in intact cells was examined using a previously reported method. 1483 human head and neck squamous cell carcinoma (1483 HNSCC) cells that express high levels of COX-2 were selected. […]
Cell Culture and In Vitro Intact Cell Metabolism Assay. Inhibition of COX-2 in intact cells by test compounds was assayed by a previously described method. Human 1483 head and neck squamous cell carcinoma (HNSCC) cells (passage 8-18, mycoplasma negative by a polymerase chain reaction detection method) were cultured in DMEM/F12+10% fetal bovine serum+Antibiotic/Antimycotic in 6-well plates to 60% confluence. […] Reactions were terminated and analyzed by thin layer chromatography as described above.

The nature of series [1]: Fluorometry: extinction, quantum yield, fluorescence in DMSO/EtOH. The series is classed as physicochemical. The method, then:
The TEMPO- and PROXYL-fluorocoxib probes are non-fluorescent (Φfl<0.3) in their non-trapped form, whereas fluorocoxib A or B are highly fluorescent (Φfl[…]) (FIG. 13). However, the absorbance and fluorescence of the TEMPO- and PROXYL-fluorocoxib probes increases in a time-dependent fashion when incubated in a DMSO/EtOH solution (FIGS. 14-15). Referring to FIG. 15, it is noted that at about 16 hours, fluorescence (ex 586 nm) read about 120,000 cps at 607 nm. Turning to FIG. 16, as compared to 5-ROX acid, which had extinction of 36/mM/cm at 580 nm and quantum yield of 0.94 at 604 nm, and fluorocoxib A, which had extinction of 45/mM/cm at 579 nm and quantum yield of 0.93 at 602 nm, fluorocoxib Q1 had extinction of less than 0.4/mM/cm at 586 nm and quantum yield of less than 0.36 at 607 nm. Without wishing to be bound by theory, it is believed that the time-dependent increase in fluorescence and measured fluorescence at 607 nm is the result of reduction/oxidation of fluorocoxib Q1 in the DMSO/EtOH solution (FIG. 16).
Fluorometry. Steady state fluorescence excitation and emission spectra were determined for each compound with a Spex 1681 Fluorolog spectrofluorometer, equipped with a 450 W xenon arc lamp. […]

In another series the test system is 1483 HNSCC cells. Briefly: Fluorescence microscopy of 1483 HNSCC cells. The series is classed as cell-based, human. The conditions noted are these: 1483 cells, 0.5 h preincubation. The method, then:
To test the specific activation of probes in cancer cells, compound 1 was incubated at selected time points (0.5, 1.0, 2.0, 3.0 h). After washout, the cells were imaged under fluorescence microscope.
Fluorescence microscopy of 1483 HNSCC cells. Fluorescence imaging of human 1483 HNSCC cells by compound 1 was performed by a previously described method. Briefly, human 1483 HNSCC cells were grown to 60% confluence. The cells were incubated in 2.0 ml Hank's balanced salt solution (HBSS)/Tyrode's with 200 nM compound 1 for 30 min at 37° C. The cells were then washed briefly three times and incubated in HBSS/Tyrode's for 30 min at 37° C. Following the required washout period, the cells were imaged in 2.0 ml fresh HBSS/Tyrode's on a Zeiss Axiovert 25 Microscope with the propidium iodide filter (0.5-1.0 sec exposure, gain of 2).

Consider `COc1ccc2c(c1)c(CC(=O)NCCCCNC(=O)c1ccc(C3=c4cc5c6c(c4Oc4c3cc3c7c4CCCN7CCC3)CCC[N+]=6CCC5)c(C(=O)NC3CC(C)(C)N([O])C(C)(C)C3)c1)c(C)n2C(=O)c1ccc(Cl)cc1` [Compound 1], for which the IC50 came out at 280 nM against hCOX-2 in 1483 cells (COX-2 IC50 in intact cells, 1483 HNSCC cells, compound 30 min 37° C., then [1-14C]-arachidonic acid 10 μM 20 min) and 285 nM on hCOX-2 in 1483 cells (hCOX-2 IC50, 1483 cells, 8 μM 14C-AA, 30 min at 37° C.).
For `COc1ccc2c(c1)c(CC(=O)NCCCCNC(=O)c1ccc(C3=c4cc5c6c(c4Oc4c3cc3c7c4CCCN7CCC3)CCC[N+]=6CCC5)c(C(=O)[O-])c1)c(C)n2C(=O)c1ccc(Cl)cc1` [Fluorocoxib A, reference compound], the extinction in series [1] (at 580 nm (5-ROX acid), 579 nm (fluorocoxib A), 586 nm (fluorocoxib Q1)) was 45 mM⁻¹ cm⁻¹. Moreover, the quantum yield in series [1] (at 604 nm (5-ROX acid), 602 nm (fluorocoxib A), 607 nm (fluorocoxib Q1)) amounted to 0.93. Further, in the series on 1483 HNSCC cells, the intracellular fluorescence result is “bright fluorescence”. Besides, the IC50 on hCOX-2 in 1483 cells (high throughput screening, intact cancer cells, read-out: COX-2 positive 1483 HNSCC cells IC50) is 300 nM.
